The results in this text go back to US11278530B2, “Polycyclic amides as muscarinic M1 receptor positive allosteric modulators” (SUVEN LIFE SCIENCES LIMITED, priority 2017, dated 2022).

A short description of data set [1]: Rodent pharmacokinetic study. Type of data set: in vivo, Male Wistar rats. Particulars: male, Wistar, rat, plasma; for bioavailability: oral 3 mg/kg vs i.v. 1 mg/kg, read-out: F (bioavailability). On the procedure:
Rodent Pharmacokinetic Study
Male Wistar rats (260±50 grams) were used as experimental animals. Animals were housed individually in polypropylene cage. Two days prior to study, male Wistar rats were anesthetized with isoflurane for surgical placement of jugular vein catheter. Rats were randomly divided for oral (3 mg/kg) and intravenous (i.v) (1 mg/kg) dosing (n=3/group) and fasted overnight before oral dosing (p.o.). However, rats allocated to intravenous (i.v.) dosing food and water was provided ad libitum.
At pre-determined point, blood was collected through jugular vein and replenished with an equivalent volume of normal saline. Collected blood was transferred into a labelled eppendorf tube containing 10 μL of heparin as an anticoagulant. Typically blood samples were collected at following time points: 0.08, 0.25, 0.5, 1, 2, 4, 6, 8, and 24 h post dose. Blood was centrifuged at 4000 rpm for 10 minutes. Plasma was separated and stored frozen at −80° C. until analysis. The concentrations of the test compounds were quantified in plasma by qualified LC-MS/MS method using suitable extraction technique. The test compounds were quantified in the calibration range around 1-1000 ng/mL in plasma. Study samples were analyzed using calibration samples in the batch and quality control samples spread across the batch.
Pharmacokinetic parameters Cmax, Tmax (h), AUCt, T1/2, clearance and bioavailability (F) were calculated by non-compartmental model using standard non-compartmental model by using Phoenix WinNonlin 6.0.2 or 6.0.3 version Software package.

Data set [2] deals with T1, recombinant human Muscarinic M1 receptor (Homo sapiens, UniProt P11229).
T1 sequence (P11229 1-460): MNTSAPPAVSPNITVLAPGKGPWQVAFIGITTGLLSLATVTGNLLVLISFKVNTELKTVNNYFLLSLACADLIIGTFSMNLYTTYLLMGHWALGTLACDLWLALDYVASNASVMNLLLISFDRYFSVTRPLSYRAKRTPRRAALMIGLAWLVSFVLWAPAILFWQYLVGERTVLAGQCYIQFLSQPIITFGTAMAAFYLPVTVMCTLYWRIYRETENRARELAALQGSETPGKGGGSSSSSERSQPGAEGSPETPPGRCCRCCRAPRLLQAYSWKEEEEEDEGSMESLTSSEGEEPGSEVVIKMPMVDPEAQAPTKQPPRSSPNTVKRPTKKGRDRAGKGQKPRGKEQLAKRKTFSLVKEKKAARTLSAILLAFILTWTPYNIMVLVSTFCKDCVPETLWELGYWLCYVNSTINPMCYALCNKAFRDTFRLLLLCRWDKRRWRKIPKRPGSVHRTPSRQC
The experiment in a line: Allosteric potency EC50 for Muscarinic M1 receptor, CHO pCRE-Luc reporter cell-based assay with EC20 of acetylcholine. Conditions: CHO cells, human M1, luciferase reporter, in presence of EC20 of acetylcholine, 4 h. On the procedure: Determination of allosteric potency EC50 values for Muscarinic M1 receptor:
A stable CHO cell line expressing recombinant human Muscarinic M1 receptor and pCRE-Luc reporter system was used for cell-based assay. The assay offers a non-radioactive based approach to determine binding of a compound to GPCRs. In this specific assay, the level of intracellular cyclic AMP which is modulated by activation or inhibition of the receptor is measured. The recombinant cells harbor luciferase reporter gene under the control of cAMP response element.
The above cells were grown in 96 well clear bottom white plates in Hams F12 medium containing 10% fetal bovine serum (FBS). Prior to the addition of compounds or standard agonist, cells were serum starved overnight. Increasing concentrations of test compounds were added along with EC20 of acetylcholine in OptiMEM medium to the cells. The incubation was continued at 37° C. in CO2 incubator for 4 h. Medium was removed and cells were washed with phosphate buffered saline. The cells were lysed and luciferase activity was measured in a Luminometer. Luminescence counts in each concentrations of test item were normalized to the acetylcholine induced maximum response and the data was analyzed using Graphpad software. EC50 values of the compounds were defined as the concentration required in stimulating the luciferase activity by 50% in presence of EC20 of acetylcholine.

Data set [3] is described as follows: Rodent brain penetration study. Particulars: male, Wistar, brain and plasma, po; rat, 3 mg/kg, p.o. @ 1.0 hr, brain-plasma ratio; read-out: Single dose Rat Brain Penetration (Cb/Cp). Type of data set: in vivo, Male Wistar rats. On the procedure: Rodent Brain Penetration Study
Male Wistar rats (260±40 grams) were used as experimental animals. Three animals were housed in each cage. Animals were given water and food ad libitum throughout the experiment and maintained on a 12 h light/dark cycle.
Brain penetration was determined in discrete manner in rats. One day prior to dosing day, male Wistar rats were acclimatized and randomly grouped according to their weight. At each time point (0.5, 1 and 2 h) n=3 animals were used.
The test compounds were suitably preformulated and administered orally at (free base equivalent) 3 mg/kg. Blood samples were removed via cardiac puncture by using isoflurane anesthesia. The animals were sacrificed to collect brain tissue. Plasma was separated and brain samples were homogenized and stored frozen at −20° C. until analysis. The concentrations of the test compounds in plasma and brain were determined using LC-MS/MS method.
The test compounds were quantified in plasma and brain homogenate by qualified LC-MS/MS method using suitable extraction technique. The test compounds were quantified in the calibration range of 1-500 ng/mL in plasma and brain homogenate. Study samples were analyzed using calibration samples in the batch and quality control samples spread across the batch.

In data set [1] (iv, i.v. 1 mg/kg), `Cc1c(Cc2ccc(-c3cnn(C)c3)c(F)c2F)cc(C(=O)N[C@H]2CCCC[C@@H]2O)c2ncccc12` [Example 8, N-(cis-1S,2S-2-Hydroxycyclohexyl)-6-[2,3-difluoro-4-(1-methyl-1H-pyrazol-4-yl)-benzyl]-5-methylquinoline-8-carboxamide] had an AUC(0-t) of 6150 ± 485 ng·h/mL, a half-life of 3.3 ± 0.7 h and a clearance of 2.7 ± 0.2 mL/min/kg. Also, the bioavailability in data set [1] is 100 ± 16%. Moreover, in data set [1] (oral 3 mg/kg), the AUC(0-t) came to 18400 ng·h/mL, the concentration peaked (Cmax) at 2330 ± 441 ng/mL, the Tmax was 2 h and the half-life was 3.6 ± 0.2 h. Also, the concentration for a half-maximal effect (EC50) in data set [2] turned out to be 0.168 µM.
Turning to `Cc1c(Cc2ccc(Cl)nc2)cc(C(=O)N[C@H]2CCCC[C@@H]2O)c2ncccc12` [Example 6, N-(cis-1S,2S-2-Hydroxycyclohexyl)-6-(2-chloropyridin-5-ylmethyl)-5-methylquinoline-8-carboxamide], in data set [1] (iv, i.v. 1 mg/kg), the AUC(0-t) is 664 ± 81 ng·h/mL, the half-life is 1.5 ± 0.6 h and the clearance was found to be 25 ± 3.3 mL/min/kg. In addition, the bioavailability in data set [1] was 50 ± 2%. Further, in data set [1] (oral 3 mg/kg), the AUC(0-t) was 1000 ± 38 ng·h/mL, the peak level (Cmax) was 582 ± 72 ng/mL, the Tmax amounted to 0.5 h and the half-life is 1.3 ± 0.2 h. Also, the concentration for a half-maximal effect (EC50) in data set [2] worked out at 1.67 µM. Further, the Kp at 1 h in data set [3] was 0.26 ± 0.04.
Regarding `Cc1c(Cc2ccc(-n3cccn3)cc2)cc(C(=O)N[C@H]2CCCC[C@@H]2O)c2c1NCCO2` [Example 17, N-(cis-1S,2S-2-Hydroxycyclohexyl)-6-(4-pyrazol-1-yl-benzyl)-5-methyl-3,4-dihydro-2H-benzo[1,4]oxazine-8-carboxamide], in data set [1] (iv, i.v. 1 mg/kg), the AUC(0-t) is 635 ± 70 ng·h/mL, the half-life was 1.3 ± 0.2 h and the clearance is 26 ± 3 mL/min/kg. For the same compound, in data set [1], the bioavailability amounted to 37 ± 6%. Also, in data set [1] (oral 3 mg/kg), the AUC(0-t) came to 705 ± 118 ng·h/mL, the highest level (Cmax) was 288 ± 26.5 ng/mL, the Tmax was determined as 1 h and the half-life is 1.3 ± 0.1 h. Also, the EC50 in data set [2] was 1.12 µM. The Kp at 1 h in data set [3] was 0.32 ± 0.06.
In the case of `Cc1c(Cc2ccnc(Cl)c2)cc(C(=O)N[C@H]2CCCC[C@@H]2O)c2ncccc12` [Example 1, N-(cis-1S,2S-2-Hydroxycyclohexyl)-6-(2-chloropyridin-4-ylmethyl)-5-methylquinoline-8-carboxamide], in data set [1] (iv, i.v. 1 mg/kg), the AUC(0-t) was 492 ± 22 ng·h/mL, the half-life was 1.3 ± 0.5 h and the clearance came to 34 ± 1.5 mL/min/kg. Further, the bioavailability in data set [1] was determined as 24 ± 8%. Also, in data set [1] (oral 3 mg/kg), the AUC(0-t) turned out to be 360 ± 117 ng·h/mL, the Cmax stood at 150 ± 39 ng/mL, the Tmax lay within 0.5 to 1 h and the half-life was 1.1 ± 0.1 h. For the same compound, the EC50 in data set [2] turned out to be 0.719 µM. For the same compound, the Kp at 1 h in data set [3] was found to be 0.54 ± 0.04.
`Cc1c(Cc2ccc(-c3cnn(C)c3)cc2F)cc(C(=O)N[C@@H]2CCCC[C@H]2O)c2nc[nH]c12` [Example 30, N-(cis-1S,2S-2-Hydroxycyclohexyl)-7-methyl-6-[2-fluoro-4-(1-methyl-1H-pyrazol-4-yl)-benzyl]-1H-benzimidazole-4-carboxamide]: the EC50 in data set [2] came to 0.151 µM.
Turning to `Cn1cc(-c2ccc(Cc3cc(C(=O)N[C@H]4CCCC[C@@H]4O)c4nccn4c3)c(F)c2F)cn1` [Example 21, N-(cis-1S,2S-2-Hydroxycyclohexyl)-6-[2,3-difluoro-4-(1-methyl-1H-pyrazol-4-yl)-benzyl]-imidazo[1,2-a]pyridine-8-carboxamide], in data set [2], the EC50 was 1.05 µM.
In the case of `Cn1cc(-c2ccc(Cc3cc(C(=O)N[C@@H]4CCCC[C@H]4O)c4nc[nH]c4c3)cc2)cn1` [Example 29, N-(cis-1S,2S-2-Hydroxycyclohexyl)-6-[4-(1-methyl-1H-pyrazol-4-yl)-benzyl]-1H-benzimidazole-4-carboxamide], the EC50 in data set [2] is 0.449 µM.
Same read-out and setting: the value for `Cc1nc2c(C(=O)N[C@H]3CCCC[C@@H]3O)cc(Cc3ccc(-c4cnn(C)c4)cc3)c(C)c2[nH]1` [Example 39, N-(cis-1S,2S-2-Hydroxycyclohexyl)-2,7-dimethyl-6-[4-(1-methyl-1H-pyrazol-4-yl)-benzyl]-1H-benzimidazole-4-carboxamide] was 0.895 µM; that for `Cc1c(Cc2ccc(F)c(F)c2)cc(C(=O)N[C@@H]2CCCC[C@H]2O)c2nc[nH]c12` [Example 34, N-(cis-1S,2S-2-Hydroxycyclohexyl)-7-methyl-6-[3,4-difluorobenzyl]-1H-benzimidazole-4-carboxamide] was 2.28 µM.
For `Cc1c(Cc2ccccc2F)cc(C(=O)N[C@H]2CCCC[C@@H]2O)c2ncccc12` [Example 5, N-(cis-1S,2S-2-Hydroxycyclohexyl)-6-(2-fluorobenzyl)-5-methylquinoline-8-carboxamide], in data set [2], the EC50 was determined as 2.34 µM.
Regarding `Cc1c(Cc2ccc(-c3cscn3)cc2)cc(C(=O)N[C@H]2CCOC[C@@H]2O)c2ncccc12` [Example 13, N-(cis-3S,4S-3-Hydroxytetrahydropyran-4-yl)-6-(4-thiazol-4-yl-benzyl)-5-methylquinoline-8-carboxamide], in data set [2], the EC50 was found to be 0.249 µM.
For the compound `Cn1cc(-c2ccc(Cc3cc(C(=O)N[C@H]4CCCC[C@@H]4O)c4[nH]cnc4c3)c(F)c2F)cn1` [Example 37, N-(cis-1S,2S-2-Hydroxycyclohexyl)-6-[2,3-difluoro-4-(1-methyl-1H-pyrazol-4-yl)-benzyl]-1H-benzimidazole-4-carboxamide], the EC50 in data set [2] was found to be 0.597 µM.
`Cn1cc(-c2ccc(Cc3cc(C(=O)N[C@H]4CCCC[C@@H]4O)c4nccn4c3)c(F)c2)cn1` [Example 26, N-(cis-1S,2S-2-Hydroxycyclohexyl)-6-[2-fluoro-4-(1-methyl-1H-pyrazol-4-yl)-benzyl]-imidazo[1,2-a]pyridine-8-carboxamide]: in data set [2], the half-maximal effective concentration (EC50) is 3.34 µM.
For `Cc1c(Cc2ccc(-c3cnn(C)c3)c(F)c2F)cc(C(=O)N[C@H]2CCCC[C@@H]2O)c2[nH]cnc12` [Example 36, N-(cis-1S,2S-2-Hydroxycyclohexyl)-7-methyl-6-[2,3-difluoro-4-(1-methyl-1H-pyrazol-4-yl)-benzyl]-1H-benzimidazole-4-carboxamide], the EC50 in data set [2] was found to be 0.465 µM.
For the compound `Cc1c(Cc2ccc(-c3cnn(C)c3)cc2)cc(C(=O)N[C@@H]2CCCC[C@H]2O)c2c1ncn2C` [Example 42, N-(cis-1S,2S-2-Hydroxycyclohexyl)-3,7-dimethyl-6-[4-(1-methyl-1H-pyrazol-4-yl)-benzyl]-3H-benzimidazole-4-carboxamide], the EC50 in data set [2] came to 10 µM.
